The test system of assay [1] is NBEB cells. The assay is described as follows: MTS cell survival assay. The assay is classed as cell-based. To be noted: up to 45 μM. Here is the method:
To examine the effects of G4-binding compounds on NBEB cells, live-cell imaging was performed using an Incucyte interface (described below). NBEB (5K/well), cells were seeded into 96-well plates in triplicate, treated with compound MY-8 at various concentrations (0-45 μM), and cultured until control wells reached confluence. For RT-qPCR and western blotting, NBEB (300K) cells were treated with MY-8 in 6-well dish for 48 h. To examine the time-dependent decrease in MYCNOs expression, cells were treated with 22.5 μM and 45 μM MY-8 and analyzed at various times (0, 4, 24, 48, 72 and 96 h). To validate cell viability, a Trypan Blue exclusion test was performed following treatment at 48 h and 96 h post treatment and the proportion of live versus dead cells was calculated using a hemocytometer.
Cell survival. Following live cell image analysis, a 3-(4, 5-dimethylthiazol-2-yl)-5-(3-carboxymethoxyphenyl)-2-(4-sulfophenyl)-2H-tetrazolium inner salt assay was performed to examine cell survival. (MTS; inner salt assay; Promega, America). Absorbance was measured with a microplate reader (BIO-RAD, America) at 490 nm wavelength. To calculate the proportion of viable cells, MY-8 treated cells were divided by the control samples from each group.
In general terms: Formazan colour is commonly taken as a measure of viable cells.

Assay [2] concerns MYCN G4 DNA. The assay is described as follows: DMS footprinting of 5′Cy5-labeled MYCN G4 DNA. In kind it is binding, human. Here is the method:
DMS footprinting. Footprinting of 5′Cy5-labelled DNA was performed as described in the literature (Zhang et al., JACS 2014, 136:1381-1390; Li et al., PNAS 2015, 112:14581-14586). […] Then, DNA solutions were diluted to 50 nM in corresponding buffers (2 mL final volume in each tube) and compound stock solutions (in DMSO) were added resulting in solutions with designed concentrations (resulting in 5% DMSO). After incubation for 30 min, the folded DNA samples were treated with 0.5% DMS for 10 min at RT and the reaction was stopped by adding 200 μL stop buffer (2.5 M NH4OAc, 0.1 M β-mercaptoethanol, 1 mg/mL calf thymus DNA). After phenol/chloroform/isoamyl alcohol extraction and ethanol precipitation, the DNAs were dissolved in 50 μL of nuclease free water. An equal volume of 10% piperidine was added to each tube, and the mixed solutions were heated at 90° C. for 30 min, followed by quick chilling on ice. The DNAs were again subjected to phenol/chloroform/isoamyl alcohol extraction and ethanol precipitation. The precipitated DNAs were dissolved in 10 μL of nuclease free water, denatured at 95° C. for 5 min, and resolved on a 17% denaturing polyacrylamide gel. After gel running, Cy5-labeled DNA fragments were visualized on a Typhoon Imager (Amersham) and digitized using Image J software.
In this example, DMS-footprinting was conducted by using 5′-Cy5-labeled MYCN hairpin-G4 DNA. […]

Each structure is given as a SMILES string.

In assay [1], `COc1ccc(-c2noc(-c3ccc(NCCCN4CCCCCC4)nn3)n2)cc1` [MY-8, N-(3-(azepan-1-yl)propyl)-6-(3-(4-methoxyphenyl)-1,2,4-oxadiazol-5-yl)pyridazin-3-amine] yielded a CC50 of 20.5 µM. With `COc1ccc(-c2noc(-c3ccc(NCCCNc4c5ccc(Cl)cc5nc5ccc(OC)cc45)nn3)n2)cc1` [B33, N^1-(6-chloro-2-methoxyacridin-9-yl)-N^3-(6-(3-(4-methoxyphenyl)-1,2,4-oxadiazol-5-yl)pyridazin-3-yl)propane-1,3-diamine], the “protection of guanines from DMS” value in assay [2] (10 mM LiCl + 10 mM NaCl Tris buffer, 0-100 nM compound) is “protection of G2-9, G10-12, and G17-21”.

For the compound `COc1ccc(-c2noc(-c3ccc(NCCCN4CCCC4)nn3)n2)cc1` [MY-1, 6-(3-(4-methoxyphenyl)-1,2,4-oxadiazol-5-yl)-N-(3-(pyrrolidin-1-yl)propyl)pyridazin-3-amine], the “protection of guanines from DMS” value in assay [2] (5 mM KCl buffer, compound at concentrations according to KD) was “G8, G9, G16, G17 were protected considerably, while G13-G15 were slightly protected”.

As a reminder, the CC50 is the concentration that lowers cell viability or growth by half. Read a high CC50 as lower toxicity to the cells.

These data come from patent US20240287054A1, “COMPOUNDS THAT BIND NON-CANONICAL G-QUADRUPLEX STRUCTURES AND METHODS OF MAKING AND USING THE SAME” (The U.S.A., as Represented by the Secretary, Department of …, priority 2021, published 2024).
